The text below walks through data of ChEMBL document CHEMBL1145948 (J Med Chem, 2003).

The structures appear in SMILES notation. The source made the active and inactive calls. The rule behind the calls is not given here.

Assay [1] deals with T1, Histamine H1 receptor (Homo sapiens, UniProt P35367).
In assay [2] the target is T1, Histamine H1 receptor. The source holds these as a separate data set.
Assay [3] has as its target T1, Histamine H1 receptor. Put plainly: Intrinsic activity; Tested up to 100 uM: no effects up to 10 uM.
Assay [4] concerns the target T1, Histamine H1 receptor. Put plainly: Intrinsic activity; Tested up to 10 uM: no effects up to 1 uM.
The target of assay [5] is T1, Histamine H1 receptor. Put plainly: Intrinsic activity; Tested up to 10 uM: no effects up to 1 uM.
The target of assay [6] is T1, Histamine H1 receptor. Put plainly: Intrinsic activity was determined; Tested up to 100 uM: no effects up to 10 uM.

T1 sequence (P35367 whole entry): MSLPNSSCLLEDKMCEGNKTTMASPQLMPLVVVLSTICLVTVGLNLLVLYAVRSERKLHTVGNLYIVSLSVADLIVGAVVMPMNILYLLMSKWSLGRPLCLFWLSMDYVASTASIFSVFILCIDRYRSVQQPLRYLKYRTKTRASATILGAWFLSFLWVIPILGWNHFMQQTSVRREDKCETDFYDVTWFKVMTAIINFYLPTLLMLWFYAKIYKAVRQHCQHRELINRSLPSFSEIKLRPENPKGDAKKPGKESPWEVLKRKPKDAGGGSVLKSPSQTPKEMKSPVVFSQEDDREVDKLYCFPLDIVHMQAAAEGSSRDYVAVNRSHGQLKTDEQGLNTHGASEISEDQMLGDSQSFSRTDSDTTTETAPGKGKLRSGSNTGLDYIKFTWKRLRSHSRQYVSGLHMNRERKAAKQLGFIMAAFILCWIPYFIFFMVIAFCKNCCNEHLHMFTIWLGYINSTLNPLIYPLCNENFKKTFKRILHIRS

Take `NCCCCCCCCCCCCCCc1c[nH]cn1`: the Alpha on Histamine H1 receptor [1] is -0.9. In turn, `NCCc1c[nH]c(-c2ccc(Cl)c(Cl)c2)n1` yielded an Alpha at Histamine H1 receptor [1] of 0.5. Further, the concentration for a half-maximal effect (EC50) (usually the concentration that produces a half-maximal response) at Histamine H1 receptor [2] was 50.1 µM. `NCCc1c[nH]c(-c2cccc(Cl)c2)n1` registered an Alpha at Histamine H1 receptor [1] of 1.28. At Histamine H1 receptor [2], this compound displayed a concentration for a half-maximal effect (EC50) of 2 µM.

`NCCc1c[nH]c(-c2cccc(C(F)(F)F)c2)n1` came in with an Alpha at Histamine H1 receptor [1] of 0.91. Compound `NCCc1cnc(-c2cccc(C(F)(F)F)c2)[nH]1` came in with a half-maximal effective concentration (EC50) on Histamine H1 receptor [2] of 1 µM.

Turning to `NCCCCCCCCCCCc1c[nH]cn1`, the Alpha at Histamine H1 receptor [1] was -0.61.

Consider `NCCCCCCCCCCCCCc1cnc[nH]1`, for which the IC50 (usually the concentration at which inhibition is half-maximal) against Histamine H1 receptor [2] was 1.26 µM. For `c1ccc(C(CCc2nc(CCN3CCCC3)c[nH]2)c2ccccc2)cc1`, the Alpha entry at Histamine H1 receptor [3] was “inactive”. Turning to `NCCc1c[nH]c(CCCCC(c2ccccc2)c2ccccc2)n1`, the Alpha on Histamine H1 receptor [1] was -0.09. With `c1nc(CCCCCCCCCCCCN2CCCC2)c[nH]1`, the Alpha on Histamine H1 receptor [1] is -0.46. Besides, on Histamine H1 receptor [2], the half-inhibitory concentration (IC50) was 3.98 µM.

`NCCCCCCCCc1cnc[nH]1` had an IC50 against Histamine H1 receptor [2] of 3.16 µM. Consider `NCCCCCCCCCCc1ccncc1`, for which the Alpha at Histamine H1 receptor [1] is -1. Further, inhibition against Histamine H1 receptor [2] was half-maximal at 2.51 µM (IC50).

With `NCCCCCCCCCc1c[nH]cn1`, the Alpha at Histamine H1 receptor [1] was -0.72. Besides, the midpoint of inhibition against Histamine H1 receptor [2], the IC50, lay at 2 µM. For `NCCc1c[nH]c(CCC(c2ccccc2)c2ccccc2)n1`, the Alpha at Histamine H1 receptor [1] amounted to 0.69. As for `NCCc1c[nH]c(CCC(c2ccccc2)C2CCCCC2)n1` (stereo not drawn), the Alpha result at Histamine H1 receptor [4] is “inactive”. In turn, `NCCCCCCCCCCCc1cnc[nH]1` showed an IC50 against Histamine H1 receptor [2] of 0.251 µM. As to `CN(C)CCN(Cc1ccccc1)c1ccccn1` [TRIPELENNAMINE], the Alpha at Histamine H1 receptor [1] is -0.84. The compound also gave an IC50 against Histamine H1 receptor [2] of 0.0398 µM. At Histamine H1 receptor [1], `NCCc1ccccn1` came in with an Alpha of 1.11. Moreover, the midpoint of inhibition at Histamine H1 receptor [2], the IC50, lay at 1.26 µM. As to `NCCCCCCCCCc1ccccn1`, the Alpha on Histamine H1 receptor [1] was -0.92. In addition, on Histamine H1 receptor [2], the IC50 is 7.94 µM. Consider `NCCCCCCCCCCc1cccnc1`, for which the Alpha at Histamine H1 receptor [1] is -0.76. At Histamine H1 receptor [2], it took 2.51 µM to reach half-maximal inhibition (IC50). `NCCCCCCCCCCCCc1cccnc1`: the Alpha on Histamine H1 receptor [1] was -0.78. Moreover, the half-inhibitory concentration (IC50) at Histamine H1 receptor [2] was 1.26 µM. For `NCCCCCCCCCCCCCc1c[nH]cn1`, the Alpha on Histamine H1 receptor [1] was -0.84.

In the case of `NCCCCCCCCCCCCc1ccncc1`, on Histamine H1 receptor [1], the Alpha was -0.67. Further, 0.398 µM corresponded to half-maximal inhibition against Histamine H1 receptor [2] (IC50).

For the compound `NCCc1c[nH]c(CC(c2ccccc2)c2ccccc2)n1`, on Histamine H1 receptor [3], the Alpha result is “inactive”. Consider `NCCCCCCCCCCc1c[nH]cn1`, for which the Alpha at Histamine H1 receptor [1] was -0.54. On Histamine H1 receptor [2], this compound showed a half-maximal inhibitory concentration (IC50) of 0.501 µM. Turning to `c1nc(CCCCCCCCN2CCCC2)c[nH]1`, the Alpha on Histamine H1 receptor [1] was -0.99. For the compound `NCCCCCCCCCCCCc1ccccn1`, the Alpha entry at Histamine H1 receptor [5] was “inactive”. On Histamine H1 receptor [1], `NCCc1c[nH]cn1` came in with an Alpha of 1. Compound `NCCc1cnc(CCC(c2ccccc2)c2ccccc2)[nH]1` gave a concentration for half-maximal inhibition (IC50) against Histamine H1 receptor [2] of 0.794 µM. This lies in the sub-micromolar range.

Consider `NCCCCCCCCCCCCc1c[nH]cn1`, for which the Alpha on Histamine H1 receptor [1] is -0.62. This compound also showed an IC50 against Histamine H1 receptor [2] of 1 µM. With `Cc1ccc(C(CCc2nc(CCN)c[nH]2)c2ccccc2)cc1` (stereo not drawn), the Alpha entry on Histamine H1 receptor [4] is “inactive”. Take `c1ncc(CCCCCCCCN2CCCC2)[nH]1`: 0.631 µM corresponded to half-maximal inhibition on Histamine H1 receptor [2] (IC50). That is a sub-micromolar value. For `NCCc1c[nH]c(CCC(c2ccccc2)c2ccc(Br)cc2)n1` (stereo not drawn), the Alpha result at Histamine H1 receptor [4] was “inactive”. For the compound `c1nc(CCCCCCCCCCN2CCCC2)c[nH]1`, the Alpha on Histamine H1 receptor [1] is -0.61. On Histamine H1 receptor [2], this compound gave an IC50 of 0.398 µM.

As to `NCCc1c[nH]c(CCCC(c2ccccc2)c2ccccc2)n1`, the Alpha at Histamine H1 receptor [1] is 0.02. For `NCCCCCCCCCCc1ccccn1`, the Alpha entry at Histamine H1 receptor [5] is “inactive”. In the case of `NCCCCCCCCc1c[nH]cn1`, the Alpha at Histamine H1 receptor [1] is -0.54. As for `NCCc1cscn1`, at Histamine H1 receptor [6], the Alpha entry was “inactive”. As for `NCCCCCCCCCCCCCCc1cnc[nH]1`, at Histamine H1 receptor [2], half-maximal inhibition (IC50) required 2 µM.
